Compound: N#CC1(c2ccc(NC(=O)c3cccnc3NCc3ccncc3)cc2)CCCC1 [Apatinib] + C[C@]1(O)C[C@@H](c2nc(-c3ccc4ccc(-c5ccccc5)nc4c3)c3c(N)nccn32)C1 [Linsitinib] (partner 1 µM)
Experiment: relative viability (nuclei count vs DMSO), 5 days (fraction); higher = more cells survive
Details: first compound 8 µM
Procedure, shortened: (§1)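 Dosing by pin tool came one day after lung cancer cell lines were seeded in 1536-well plates, using either one drug or a fixed anchor-drug dose plus five library-drug doses (not always all listed) in √10 steps. After 5 days, nuclei were counted on 4× images. Relative viability is treated-well nuclei count divided by vehicle-well nuclei count, and values are medians of duplicate plates.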

| Cell Line | relative viability |
| --- | --- |
| NCI-H2126 | 0.652 |
| NCI-H2228 | 0.629 |
| NCI-H2347 | 0.9 |
| NCI-H2405 | 0.955 |
| NCI-H3122 | 0.911 |

Compound: CN(C)C(=N)NC(=N)N [Metformin] + Cc1nc(NC(=O)N2CCC[C@H]2C(N)=O)sc1-c1ccnc(C(C)(C)C(F)(F)F)c1 [Alpelisib] (partner 2 µM)
Experiment: as above
Details: first compound 10 µM
Procedure, shortened: as §1

| Cell Line | relative viability |
| --- | --- |
| NCI-H322M | 0.83 |
| NCI-H358 | 1.1 |
| NCI-H441 | 0.566 |
| NCI-H520 | 0.764 |
| NCI-H596 | 0.627 |
| NCI-H647 | 1.07 |
| NCI-H650 | 1.22 |
| NCI-H661 | 0.745 |
| NCI-H727 | 0.657 |
| NCI-H838 | 1.04 |
| NCI-H1355 | 0.746 |
| NCI-H1395 | 0.835 |
| NCI-H1437 | 1.11 |
| NCI-H1651 | 1.21 |
| NCI-H1666 | 0.943 |
| NCI-H1734 | 0.697 |
| NCI-H1755 | 0.767 |
| NCI-H1793 | 1.17 |
| NCI-H1944 | 0.936 |
| NCI-H1975 | 0.766 |
| NCI-H1993 | 0.634 |
| NCI-H2009 | 1.25 |
| NCI-H2085 | 0.956 |
| NCI-H2087 | 1.09 |
| NCI-H2126 | 0.695 |
| NCI-H2228 | 0.917 |
| NCI-H2347 | 0.771 |
| NCI-H2405 | 0.873 |
| NCI-H3122 | 0.524 |

Same assay, conditions: first compound 31.62 µM

| Cell Line | relative viability |
| --- | --- |
| NCI-H322M | 0.901 |
| NCI-H358 | 0.911 |
| NCI-H520 | 0.855 |
| NCI-H596 | 0.652 |
| NCI-H647 | 1.05 |
| NCI-H650 | 1.29 |
| NCI-H661 | 0.404 |
| NCI-H727 | 0.749 |
| NCI-H838 | 0.969 |
| NCI-H1355 | 0.787 |
| NCI-H1395 | 1.02 |
| NCI-H1437 | 1.03 |
| NCI-H1651 | 1.13 |
| NCI-H1666 | 1.05 |
| NCI-H1734 | 0.718 |
| NCI-H1755 | 0.826 |

| Cell Line | relative viability |
| --- | --- |
| NCI-H1792 | 0.798 |
| NCI-H1793 | 1.03 |
| NCI-H1915 | 1.14 |
| NCI-H1944 | 1.01 |
| NCI-H1975 | 0.839 |
| NCI-H1993 | 0.67 |
| NCI-H2009 | 1.16 |
| NCI-H2023 | 0.558 |
| NCI-H2085 | 0.955 |
| NCI-H2087 | 0.858 |
| NCI-H2126 | 0.752 |
| NCI-H2228 | 0.85 |
| NCI-H2347 | 0.968 |
| NCI-H2405 | 0.971 |
| NCI-H3122 | 0.598 |

Same assay, conditions: first compound 100 µM

| Cell Line | relative viability |
| --- | --- |
| NCI-H322M | 0.845 |
| NCI-H358 | 1.07 |
| NCI-H441 | 0.765 |
| NCI-H520 | 0.948 |
| NCI-H596 | 0.655 |
| NCI-H647 | 1.08 |
| NCI-H650 | 1.33 |
| NCI-H661 | 0.711 |
| NCI-H727 | 0.469 |
| NCI-H838 | 0.969 |
| NCI-H1355 | 0.853 |
| NCI-H1395 | 1.1 |
| NCI-H1437 | 1.07 |
| NCI-H1651 | 1.14 |

Source: the supplement of paper PMC10307832
